Values after ≈ are worked out from the molar mass of the structure shown. Where a name gives a salt, the structure may show the parent alone. Read-outs that look alike come from different tables or passages of the source.
Experiments:
P-388 Mice Leukemia = assay: therapeutic effect against P-388 Mice Leukemia; format: in vivo; conditions: daily on days 1 to 5, 1×10^6 P-388 cells intraperitoneally
Method: (§1) The test was conducted in accordance with the method described in Cancer Chemotherapy Reports, Part 3, Vol. 3, No. 2, p. 9, September 1972. Mice inoculated intraperitoneally with 1×10^6 cells of P-388 were administered with the test compounds daily on days 1 to 5. The activity (T/C) of the test compounds is represented by the ratio of the median survival time of the treated group to that of the control group.

Staphylococcus aureus = assay: minimum inhibitory concentration (MIC) by the agar dilution method, Staphylococcus aureus; format: cell-based; conditions: Brain heart infusion agar, 18 hrs after inoculation
Method: (§2) The minimum inhibitory concentration (MIC) of the FA-118O A, A1, B or B1 was determined by the agar dilution method, and the results are indicated in Table 5 below.
(§3) (1) Medium: Brain heart infusion agar
(§4) (2) Determined: 18 hrs after inoculation

[1] = tested on: Salmonella typhimurium IFO 12529; assay: minimum inhibitory concentration (MIC) by the agar dilution method, Salmonella typhimurium IFO 12529; format: cell-based; conditions: Brain heart infusion agar, 18 hrs after inoculation
Method: as §2, §3, §4

Gram-positive bacteria = assay: ability to inhibit the growth of Gram-positive bacteria (summary statement); format: cell-based; conditions: summary in words
Method: as §2

Pseudomonas aeruginosa H = assay: minimum inhibitory concentration (MIC) by the agar dilution method, Pseudomonas aeruginosa H; format: cell-based; conditions: Brain heart infusion agar, 18 hrs after inoculation
Method: as §2, §3, §4

Escherichia coli P3478 = assay: minimum inhibitory concentration (MIC) by the agar dilution method, Escherichia coli P3478; format: cell-based; conditions: Brain heart infusion agar, 18 hrs after inoculation
Method: as §2, §3, §4

Bacillus cereus IAM 1729 = assay: minimum inhibitory concentration (MIC) by the agar dilution method, Bacillus cereus IAM 1729; format: cell-based; conditions: IAM1729, Brain heart infusion agar, 18 hrs after inoculation
Method: as §2, §3, §4

tumor = assay: antitumor activity (summary statement); conditions: summary in words
Method: as §1
(§5) The tumor cell suspension was prepared from cells taken from ascites of rats to which 1×10^6 cells of Yoshida rat sarcoma had been inoculated before 3 to 5 days. The ascites was diluted with a medium which was constituted from 80 to 90% (v/v) Fischer's solution containing 20 to 10% (v/v) desensitized horse serum. One half milliliter of the cell suspension containing 5~20×10^4 cells thus prepared was placed in a small test tube. A substance to be tested was dissolved and diluted with the same medium and 0.5 ml of the diluted solution was added to the cell suspension. To the control tube was added 0.5 ml of the medium. 2 to 5 tubes were used for each experimental units. They were incubated statically at 37° C. for 2 to 3 days. After the incubation, growth was measured by observing the quantity of precipitated cells on the bottom of the test tube with the naked eyes. Growth inhibitory effect of a substance was expressed by the concentration pointing 50 percent growth of the control growth.

Yoshida rat sarcoma = assay: growth inhibitory effect on Yoshida rat sarcoma cells; format: cell-based; conditions: for IC50: Rattus norvegicus, YOSHIDA, read-out: Growth Inhibitory Effect IC50
Method: as §5
IC50 : The concentration pointing 50% growth of the control growth.

Bacillus subtilis 45 T = assay: minimum inhibitory concentration (MIC) by the agar dilution method, Bacillus subtilis 45 T; format: cell-based; conditions: Brain heart infusion agar, 18 hrs after inoculation
Method: as §2, §3, §4

Escherichia coli NIHJ = assay: minimum inhibitory concentration (MIC) by the agar dilution method, Escherichia coli NIHJ; format: cell-based; conditions: Brain heart infusion agar, 18 hrs after inoculation
Method: as §2, §3, §4

[2] = tested on: Serratia marcescens IFO 12648; assay: minimum inhibitory concentration (MIC) by the agar dilution method, Serratia marcescens IFO 12648; format: cell-based; conditions: 18 hrs after inoculation
Method: as §2, §3, §4

Bacillus subtilis 17 A = assay: minimum inhibitory concentration (MIC) by the agar dilution method, Bacillus subtilis 17 A; format: cell-based; conditions: Brain heart infusion agar, 18 hrs after inoculation
Method: as §2, §3, §4

[3] = tested on: Bacillus subtilis PCI 219; assay: minimum inhibitory concentration (MIC) by the agar dilution method, Bacillus subtilis PCI 219; format: cell-based; conditions: Brain heart infusion agar, 18 hrs after inoculation
Method: as §2, §3, §4

[4] = tested on: Staphylococcus aureus 209 P; assay: minimum inhibitory concentration (MIC) by the agar dilution method, Staphylococcus aureus 209 P; format: cell-based; conditions: Brain heart infusion agar, 18 hrs after inoculation
Method: as §2, §3, §4

Candida albicans = assay: minimum inhibitory concentration (MIC) by the agar dilution method, Candida albicans; format: cell-based; conditions: Brain heart infusion agar, 18 hrs after inoculation
Method: as §2, §3, §4

Solubility = format: physicochemical
[5] = tested on: Klebsiella pneumoniae IFO 3512; assay: minimum inhibitory concentration (MIC) by the agar dilution method, Klebsiella pneumoniae IFO 3512; format: cell-based; conditions: 18 hrs after inoculation
Method: as §2, §3, §4

Escherichia coli W3110 = assay: minimum inhibitory concentration (MIC) by the agar dilution method, Escherichia coli W3110; format: cell-based; conditions: Brain heart infusion agar, 18 hrs after inoculation
Method: as §2, §3, §4

[6] = Salmonella enterica, read-out: MIC
[7] = concentration pointing 50% growth of the control growth, 37° C., 2 to 3 days, Fischer's solution with horse serum
[8] = IFO12648, Brain heart infusion agar, read-out: MIC
[9] = Bacillus subtilis, PCI219, 18 h, read-out: MIC
[10] = IFO3512, Brain heart infusion agar, read-out: MIC

SMILES | Activity (T/C), ratio of median survival time of treated group to control group (P-388 Mice Leukemia; 0.25 mg/kg/day) [%] | Activity (T/C), ratio of median survival time of treated group to control group (P-388 Mice Leukemia; 0.5 mg/kg/day) [%] | Activity (T/C), ratio of median survival time of treated group to control group (P-388 Mice Leukemia; 1.0 mg/kg/day) [%] | MIC (Staphylococcus aureus; read-out: MIC) [µg/mL] | MIC [1, 6] [µg/mL] | ability to inhibit the growth of Gram-positive bacteria (Gram-positive bacteria) | MIC (Pseudomonas aeruginosa H; read-out: MIC) [µg/mL] | MIC (Escherichia coli P3478; read-out: MIC) [µg/mL] | MIC (Bacillus cereus IAM 1729) [µg/mL] | antitumor activity (tumor) | MIC (Bacillus subtilis 45 T; read-out: MIC) [µg/mL] | MIC (Escherichia coli NIHJ; read-out: MIC) [µg/mL] | MIC [2, 8] [µg/mL] | MIC (Bacillus subtilis 17 A; read-out: MIC) [µg/mL] | MIC [3, 9] [µg/mL] | MIC ([4]; read-out: MIC) [µg/mL] | MIC (Candida albicans; read-out: MIC) [µg/mL] | Solubility in chloroform (Solubility) | Solubility in methanol (Solubility) | Growth Inhibitory Effect IC50 (Yoshida rat sarcoma; [7]) | other results
CC(O)CC(OC(C)CO)OC1C(N)CC(OC2CC(O)(C(C)O)Cc3c(O)c4c(c(O)c32)C(=O)c2c(O)cccc2C4=O)OC1C (centres unmarked) [FA-1180 B] | 143 | 162 | 190 | 50 (≈ 75.6 µM) | > 100 | strong ability to inhibit the growth of Gram-positive bacteria | > 100 | > 100 | 25 (≈ 37.8 µM) | antitumor activity | 0.4 (≈ 0.605 µM) | > 100 | > 100 | 12.5 (≈ 18.9 µM) | 6.25 (≈ 9.45 µM) | 50 (≈ 75.6 µM) | > 100 | soluble | freely soluble | – | IC50 (Yoshida rat sarcoma; [7]): 0.01 µg/mL (≈ 0.0151 µM); Solubility in n-hexane (Solubility): slightly soluble; MIC [5, 10]: > 100 µg/mL; MIC (Escherichia coli W3110; read-out: MIC): > 100 µg/mL
COc1cccc2c1C(=O)c1c(O)c3c(c(O)c1C2=O)C[C@@](O)(C(=O)CO)C[C@@H]3O[C@H]1C[C@H](N)[C@H](O)[C@H](C)O1 [Adriamycin hydrochloride, reference compound] | – | – | – | – | – | – | – | – | – | – | – | – | – | – | – | – | – | – | – | – | IC50 (Yoshida rat sarcoma): 0.01 µg/mL
O=c1[nH]cc(F)c(=O)[nH]1 [5-FU, reference compound] | – | – | – | – | – | – | – | – | – | – | – | – | – | – | – | – | – | – | – | – | Activity (T/C), ratio of median survival time of treated group to control group (P-388 Mice Leukemia; 20 mg/kg/day): 198%
CC(=O)C1(O)Cc2c(O)c3c(c(O)c2C(OC2CC(N)C(OC(CC(C)O)OC(C)CO)C(C)O2)C1)C(=O)c1c(O)cccc1C3=O (centres unmarked) [FA-1180 A1] | – | – | – | – | – | strong ability to inhibit the growth of Gram-positive bacteria | – | – | – | antitumor activity | – | – | – | – | – | – | – | – | – | 10^-3 μg/ml | MIC (Staphylococcus aureus): 12.5 ppm; MIC [1]: > 100 ppm; MIC (Pseudomonas aeruginosa H): > 100 ppm; MIC (Escherichia coli P3478): > 100 ppm; MIC (Bacillus subtilis 45 T): < 0.2 ppm; MIC (Escherichia coli NIHJ): > 100 ppm; MIC ([2]; Brain heart infusion agar): > 100 ppm; MIC (Bacillus subtilis 17 A): 1.56 ppm; MIC [3]: 1.56 ppm; MIC [4]: 12.5 ppm; MIC (Candida albicans): > 100 ppm; MIC ([5]; Brain heart infusion agar): > 100 ppm; MIC (Escherichia coli W3110): > 100 ppm
CC(O)CC(OC(C)CO)OC1C(N)CC(OC2CC(O)(C(C)O)Cc3c(O)c4c(c(O)c32)C(=O)c2c(O)cccc2C4=O)OC1C (centres unmarked) [FA-1180 B1] | 151 | 168 | 179 | – | – | strong ability to inhibit the growth of Gram-positive bacteria | – | – | – | antitumor activity | – | – | – | – | – | – | – | – | – | 10^-2 μg/ml | MIC (Staphylococcus aureus): 50 ppm; MIC [1]: > 100 ppm; MIC (Pseudomonas aeruginosa H): > 100 ppm; MIC (Escherichia coli P3478): > 100 ppm; MIC (Bacillus subtilis 45 T): 0.4 ppm; MIC (Escherichia coli NIHJ): > 100 ppm; MIC ([2]; Brain heart infusion agar): > 100 ppm; MIC (Bacillus subtilis 17 A): 12.5 ppm; MIC [3]: 3.125 ppm; MIC [4]: 50 ppm; MIC (Candida albicans): > 100 ppm; MIC ([5]; Brain heart infusion agar): > 100 ppm; MIC (Escherichia coli W3110): > 100 ppm
CC(=O)C1(O)Cc2c(O)c3c(c(O)c2C(OC2CC(N)C(OC(CC(C)O)OC(C)CO)C(C)O2)C1)C(=O)c1c(O)cccc1C3=O (centres unmarked) [FA-1180 A] | 148 | 167 | 205 | 12.5 (≈ 18.9 µM) | > 100 | strong ability to inhibit the growth of Gram-positive bacteria | > 100 | > 100 | 3.12 (≈ 4.74 µM) | antitumor activity | < 0.2 | > 100 | > 100 | 1.56 (≈ 2.36 µM) | 1.56 (≈ 2.36 µM) | 12.5 (≈ 18.9 µM) | > 100 | soluble | freely soluble | 10^-2 μg/ml | Solubility in n-hexane (Solubility): slightly soluble; MIC [5, 10]: > 100 µg/mL; MIC (Escherichia coli W3110; read-out: MIC): > 100 µg/mL

Source: patent US4387218A, “Anthracycline antibiotics FA-1180 B and B1, or salts thereof” (priority 1979, dated 1983)
